Measured values published in article PMC9380671, “Development of spiro-3-indolin-2-one containing compounds of antiproliferative and anti-SARS-CoV-2 properties” (Scientific Reports, 2022).
Where two headings read alike, the source gives them in different places.

Experiments:
AChE = AChE (Homo sapiens, UniProt P22303); experiment: AChE inhibition (DTNB, acetylthiocholine); type: biochemical; conditions: for IC50: read-out: AChE (IC50, μM) ± SD
Method: All compounds were dissolved in MeOH.

EGFR = target: T1, EGFR (Homo sapiens, UniProt P00533); type: cell-based; conditions: western blot, MCF7, compound at its MTT IC50; for EGFR RQ (relative quantification): control RQ 3.4461
T1 construct: Western blot technique was considered for EGFR and VEGFR-2 properties determination; endogenous in cells; host or cells: MCF7 (breast cancer cell line)
T1 sequence (P00533 25-1210): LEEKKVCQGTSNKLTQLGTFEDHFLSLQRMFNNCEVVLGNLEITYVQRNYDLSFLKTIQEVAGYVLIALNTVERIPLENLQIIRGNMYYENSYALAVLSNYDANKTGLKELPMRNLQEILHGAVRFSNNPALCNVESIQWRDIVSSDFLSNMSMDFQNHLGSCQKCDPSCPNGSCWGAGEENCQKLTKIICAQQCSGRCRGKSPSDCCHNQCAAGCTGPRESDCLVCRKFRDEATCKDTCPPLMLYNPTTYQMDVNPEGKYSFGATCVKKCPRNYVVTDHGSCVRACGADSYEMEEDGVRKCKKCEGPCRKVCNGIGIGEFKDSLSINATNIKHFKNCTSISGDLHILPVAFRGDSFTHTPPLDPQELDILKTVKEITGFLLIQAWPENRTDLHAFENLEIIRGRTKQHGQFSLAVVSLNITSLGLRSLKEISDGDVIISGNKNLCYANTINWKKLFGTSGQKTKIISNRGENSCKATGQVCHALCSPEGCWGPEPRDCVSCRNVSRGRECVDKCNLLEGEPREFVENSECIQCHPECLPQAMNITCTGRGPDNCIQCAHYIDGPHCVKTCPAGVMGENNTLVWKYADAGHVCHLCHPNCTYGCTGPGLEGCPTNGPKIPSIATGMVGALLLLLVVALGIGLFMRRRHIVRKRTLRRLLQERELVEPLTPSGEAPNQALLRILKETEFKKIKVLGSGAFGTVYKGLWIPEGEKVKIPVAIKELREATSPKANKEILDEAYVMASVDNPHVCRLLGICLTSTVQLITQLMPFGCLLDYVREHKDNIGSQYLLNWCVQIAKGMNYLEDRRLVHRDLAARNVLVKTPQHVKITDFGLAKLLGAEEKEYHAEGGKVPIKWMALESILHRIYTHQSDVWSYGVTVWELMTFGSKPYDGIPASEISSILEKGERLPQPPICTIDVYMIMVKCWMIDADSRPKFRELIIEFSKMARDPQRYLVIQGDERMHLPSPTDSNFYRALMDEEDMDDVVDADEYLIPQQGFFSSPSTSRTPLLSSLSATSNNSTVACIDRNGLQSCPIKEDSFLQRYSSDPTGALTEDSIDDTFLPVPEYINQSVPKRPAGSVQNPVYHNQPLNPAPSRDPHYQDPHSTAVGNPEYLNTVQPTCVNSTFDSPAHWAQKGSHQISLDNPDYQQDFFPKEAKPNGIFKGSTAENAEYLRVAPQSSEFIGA
Description: (§1) The western blot technique was applied utilizing the IC50 observed for each respective agent synthesized during MTT assay[85],[86]. Consideration of multi-targeted inhibitory properties investigation is based in the fact that cancer initiation and proliferation sometimes utilizes many receptors or signaling pathways.
(§2) Western blot technique was considered for EGFR and VEGFR-2 properties determination utilizing the IC50 observed of each respective agent synthesized during MTT assay against MCF7 (breast) cancer cell line. All the studies were conducted according to the manufacturer’s instruction.^10,^11

VEGFR-2 = target: T2, VEGFR-2 (Homo sapiens, UniProt P35968); type: cell-based; conditions: western blot, MCF7, compound at its MTT IC50; for VEGFR-2 RQ (relative quantification): control RQ 3.2634
T2 construct: Western blot technique was considered for EGFR and VEGFR-2 properties determination; endogenous in cells; host or cells: MCF7 (breast cancer cell line)
T2 sequence (P35968 20-1356): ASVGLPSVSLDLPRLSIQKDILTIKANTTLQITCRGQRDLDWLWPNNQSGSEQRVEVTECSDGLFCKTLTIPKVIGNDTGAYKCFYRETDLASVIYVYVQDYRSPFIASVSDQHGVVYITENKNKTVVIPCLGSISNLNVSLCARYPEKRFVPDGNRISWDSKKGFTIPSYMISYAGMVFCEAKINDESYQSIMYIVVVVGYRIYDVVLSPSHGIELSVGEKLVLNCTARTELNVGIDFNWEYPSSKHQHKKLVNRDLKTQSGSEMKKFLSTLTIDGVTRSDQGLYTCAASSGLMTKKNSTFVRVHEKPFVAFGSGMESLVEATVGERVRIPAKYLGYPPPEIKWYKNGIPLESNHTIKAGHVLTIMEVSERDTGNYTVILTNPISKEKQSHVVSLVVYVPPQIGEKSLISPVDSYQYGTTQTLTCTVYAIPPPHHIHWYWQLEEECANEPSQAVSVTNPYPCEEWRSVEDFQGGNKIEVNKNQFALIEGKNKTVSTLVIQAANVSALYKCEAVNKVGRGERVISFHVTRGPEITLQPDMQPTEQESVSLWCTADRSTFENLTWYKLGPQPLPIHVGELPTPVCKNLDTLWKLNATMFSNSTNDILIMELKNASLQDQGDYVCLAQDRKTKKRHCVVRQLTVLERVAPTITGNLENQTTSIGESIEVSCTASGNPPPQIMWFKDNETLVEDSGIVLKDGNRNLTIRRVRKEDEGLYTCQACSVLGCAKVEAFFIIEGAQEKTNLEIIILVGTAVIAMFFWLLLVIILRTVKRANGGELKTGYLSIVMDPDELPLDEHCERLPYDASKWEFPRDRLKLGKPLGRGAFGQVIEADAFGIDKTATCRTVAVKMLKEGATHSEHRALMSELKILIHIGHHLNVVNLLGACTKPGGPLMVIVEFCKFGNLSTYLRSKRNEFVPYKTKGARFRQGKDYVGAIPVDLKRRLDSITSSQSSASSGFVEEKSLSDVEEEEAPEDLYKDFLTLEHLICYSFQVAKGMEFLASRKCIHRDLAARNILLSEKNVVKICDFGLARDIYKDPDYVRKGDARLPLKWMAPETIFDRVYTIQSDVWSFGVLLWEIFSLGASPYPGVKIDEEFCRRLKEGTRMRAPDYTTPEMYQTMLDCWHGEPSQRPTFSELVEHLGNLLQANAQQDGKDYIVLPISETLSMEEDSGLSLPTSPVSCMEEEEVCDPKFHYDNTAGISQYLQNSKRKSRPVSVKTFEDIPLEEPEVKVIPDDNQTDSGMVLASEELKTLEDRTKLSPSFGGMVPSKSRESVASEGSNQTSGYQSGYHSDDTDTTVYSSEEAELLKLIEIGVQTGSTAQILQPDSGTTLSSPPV
Description: as §1, §2

[1] = tested on: PaCa2 (pancreatic) cancer cell line; experiment: MTT antiproliferation, PaCa-2; type: cell-based, human; conditions: for IC50: Homo sapiens, PaCa-2, 72 h, read-out: IC50 (µM) ± SEM PaCa-2; for SI (selectivity index) PaCa-2: IC50 of RPE1/IC50 of cancer cell line
Method: (§3) Antiproliferation properties of the targeted agents were investigated by the standard MTT technique against diverse human cancer cell lines [MCF7 (breast), HCT116 (colon), A431 (skin squamous) and PaCa2 (pancreatic)][67] (Table 1, Supplementary Figs. S48‒S51).
Cells were suspended in DMEM medium for MCF7, A431, PaCa-2 and McCoy’s 5A for HCT116 in addition to 1% antibiotic–antimycotic mixture (10000 μg ml^-1 potassium penicillin, 10000 μg ml^-1 streptomycin sulfate and 25 μg ml^-1 amphotericin B), 10% fetal bovine serum and 1% L-glutamine at 37 °C, under 5% CO2 and 95% humidity. Cells were seeded at concentration of 30000 cells per well in fresh complete growth medium in 96-well tissue culture microtiter plates for 24 h. Media was aspirated, fresh complete medium was added and cells were incubated with different concentrations of the tested compound to give a final concentration of [50, 25, 12.5 and 6.25 μM “in addition to 3.125, 1.56 and 0.78 μM in case of high potent analogues”). 0.5% DMSO was used as negative control. Triplicate wells were prepared for each individual dose. After 72 h of incubation, medium was aspirated, 40 μl MTT salt (2.5 mg ml^-1) was added to each well and incubated for further 4 h at 37 °C. To stop the reaction and dissolve the formed crystals, 150 μl of 10% sodium dodecyl sulfate (SDS) in deionized water was added to each well and incubated overnight at 37 °C. The absorbance was then measured at 570 nm and a reference wavelength of 595 nm.
(§4) Data were collected as mean values for experiments performed in triplicates for each individual dose which had been measured by MTT assay. […] The cell surviving fraction was calculated according to the following equation.
(§5) Surviving fraction = OpticaldensityO.D.oftreatedcellsO.D.ofcontrolcells
(§6) Statistical calculations for determination of the mean and standard error mean values were determined by SPSS 16 software. The observed anti-proliferative properties are presented in Table 1 (Supplementary Figs. S48‒S52).

[2] = tested on: MCF7 (breast) cancer cell line; experiment: MTT antiproliferation, MCF7; type: cell-based, human; conditions: for IC50: Homo sapiens, MCF7, 72 h, read-out: IC50 (µM) ± SEM MCF7; for SI (selectivity index) MCF7: IC50 of RPE1/IC50 of cancer cell line
Method: as §3
(§7) Cells were seeded at concentration of 30000 cells per well in fresh complete growth medium in 96-well tissue culture microtiter plates for 24 h. […] 0.5% DMSO was used as negative control. Triplicate wells were prepared for each individual dose. After 72 h of incubation, medium was aspirated, 40 μl MTT salt (2.5 mg ml^-1) was added to each well and incubated for further 4 h at 37 °C. To stop the reaction and dissolve the formed crystals, 150 μl of 10% sodium dodecyl sulfate (SDS) in deionized water was added to each well and incubated overnight at 37 °C.
as §4, §5
(§8) Statistical calculations for determination of the mean and standard error mean values were determined by SPSS 16 software.

[3] = tested on: SARS-CoV-2 (hCoV-19/Egypt/NRC-03/2020); experiment: Vero-E6 cell viral infection model, anti-SARS-CoV-2 IC50 (CPE, crystal violet); type: cell-based; conditions: for IC50: Severe acute respiratory syndrome coronavirus 2, Vero C1008; for SI = CC50/IC50: Vero-E6, SARS-CoV-2
[4] = MTT cytotoxicity assay (CC50); type: cell-based; conditions: African green monkey, VERO-E6 cells
Method: The cytotoxic activity of the compounds was tested in VERO-E6 cells by using the 3-(4,5-dimethylthiazol-2-yl)-2,5-diphenyltetrazolium bromide (MTT) method with minor modifications. Briefly, the cells were seeded in 96 well-plates […] at a density of 3 x 10^5 cell/ml and incubated for 24 h at 37 °C in 5% CO2. After 24 h, cells were treated with various concentrated of the tested compounds in triplicates. 24 h later, the supernatant was discarded and cell monolayers were washed with sterile 1x phosphate buffer saline (PBS) 3 times and MTT solution (20 µl of 5 mg/ml) was added to each well and incubated at 37 °C for 4 h followed by medium aspiration. In each well, the formed formazan crystals were dissolved with 200 µl of acidified isopropanol (0.04 M HCl in absolute isopropanol = 0.073 ml HCl in 50 ml isopropanol). Eventually, the absorbance was measured at λmax 570 nm using the Anthos Zenyth 200rt plate reader (Anthos Labtec Instruments, Heerhugowaard, Netherlands). The cytotoxicity of various concentrations compared to the untreated cells was determined using nonlinear regression analysis by plotting log inhibitor versus normalized response.^12^-14

[5] = tested on: HCT116 (colon) cancer cell line; experiment: MTT antiproliferation, HCT116; type: cell-based, human; conditions: for IC50: Homo sapiens, HCT-116, 72 h, read-out: IC50 (µM) ± SEM HCT116; for SI (selectivity index) HCT116: IC50 of RPE1/IC50 of cancer cell line
Method: as §3, §7, §4, §5, §8

[6] = tested on: A431 (skin squamous) cancer cell line; experiment: MTT antiproliferation, A431; type: cell-based, human; conditions: for IC50: Homo sapiens; for SI (selectivity index) A431: IC50 of RPE1/IC50 of cancer cell line
Method: as §3, §7, §4, §5, §8

BChE = BChE (Homo sapiens, UniProt P06276); experiment: BChE inhibition (DTNB, butyrylthiocholine iodide)
BChE, sequence (P06276 29-602, species assumed): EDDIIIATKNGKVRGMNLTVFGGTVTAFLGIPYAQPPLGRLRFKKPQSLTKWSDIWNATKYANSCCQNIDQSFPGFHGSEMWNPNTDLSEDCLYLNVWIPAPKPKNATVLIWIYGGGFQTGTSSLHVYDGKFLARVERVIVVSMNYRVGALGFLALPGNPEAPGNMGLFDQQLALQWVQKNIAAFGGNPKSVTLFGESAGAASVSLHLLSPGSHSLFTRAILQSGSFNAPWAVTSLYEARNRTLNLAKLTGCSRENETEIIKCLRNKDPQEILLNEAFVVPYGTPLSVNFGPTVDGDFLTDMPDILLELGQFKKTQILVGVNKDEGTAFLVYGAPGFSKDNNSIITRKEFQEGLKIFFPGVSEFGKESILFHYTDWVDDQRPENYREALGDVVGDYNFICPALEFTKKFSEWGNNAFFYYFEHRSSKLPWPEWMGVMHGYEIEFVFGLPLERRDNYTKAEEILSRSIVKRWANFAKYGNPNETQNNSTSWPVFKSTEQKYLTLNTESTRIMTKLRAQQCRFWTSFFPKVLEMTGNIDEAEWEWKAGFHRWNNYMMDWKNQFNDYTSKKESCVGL

[7] = tested on: RPE1 (normal human immortalized retinal pigment epithelial cell line); experiment: MTT toxicity towards normal cells, RPE1; type: cell-based; conditions: RPE-1, read-out: IC50 (µM) ± SEM RPE1
Method: The safety of the synthesized agents against non-cancer/normal RPE1 (retinal pigment epithelium) cell line was assessed (Table 1, Supplementary Fig. S52). The SI (selectivity index) for the tested compounds against RPE1 cell line confirms the safety towards non-cancer cells. […] Compound 6d and 6h which are also of high anti-PaCa2 show remarkable SI values (SI = > 3.8, > 3.6, respectively).
The agents synthesized were also tested against RPE1 (normal human immortalized retinal pigment epithelial cell line) cell (in DMEM-F12 medium) to determine the toxicity/selectivity towards normal cells relative to the cancer cell lines utilized.
as §6

[8] = Vero-E6, 72 h, reduction of virus-induced CPE, read-out: IC50 (µM) SARS-CoV-2
[9] = log of observed IC50 in μM, read-out: Observed log(IC50, μM) (SARS-CoV-2) (converted)
[10] = A-431, 72 h, read-out: IC50 (µM) ± SEM A431
[11] = A-431, read-out: Observed log(IC50, μM) (A431) (converted)

AChE, sequence (P22303 32-614): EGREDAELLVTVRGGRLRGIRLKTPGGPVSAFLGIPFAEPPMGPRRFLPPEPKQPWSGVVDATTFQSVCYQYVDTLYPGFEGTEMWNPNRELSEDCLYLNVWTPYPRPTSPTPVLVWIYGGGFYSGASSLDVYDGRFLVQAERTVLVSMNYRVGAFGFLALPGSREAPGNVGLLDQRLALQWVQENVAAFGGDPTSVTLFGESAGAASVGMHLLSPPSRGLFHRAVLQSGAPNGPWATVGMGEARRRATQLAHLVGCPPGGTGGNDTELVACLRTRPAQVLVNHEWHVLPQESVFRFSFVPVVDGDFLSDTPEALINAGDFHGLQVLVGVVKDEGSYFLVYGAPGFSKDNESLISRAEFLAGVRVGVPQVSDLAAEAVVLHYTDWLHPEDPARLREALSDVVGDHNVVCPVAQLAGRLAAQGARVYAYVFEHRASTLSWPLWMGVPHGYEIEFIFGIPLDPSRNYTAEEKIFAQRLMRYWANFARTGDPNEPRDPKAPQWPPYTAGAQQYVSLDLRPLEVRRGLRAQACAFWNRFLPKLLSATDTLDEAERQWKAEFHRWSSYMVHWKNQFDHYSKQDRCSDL

Row | Structure (SMILES) | SI = IC50 (AChE)/IC50 (BChE) (AChE) | IC50 (AChE) [µM] | EGFR % Inhibition (EGFR) [%] | EGFR RQ (relative quantification) (EGFR) | VEGFR-2 % Inhibition (VEGFR-2) [%] | VEGFR-2 RQ (relative quantification) (VEGFR-2) | IC50 [1] [µM] | SI (selectivity index) PaCa-2 [1] | IC50 [2] [µM] | SI (selectivity index) MCF7 [2] | IC50 [3, 8] [µM] | IC50 [3, 9] [µM] | SI = CC50/IC50 [3] | CC50 at 24 h [4] [µM] | IC50 [5] [µM] | SI (selectivity index) HCT116 [5] | IC50 [6, 10] [µM] | IC50 [6, 11] [µM] | SI (selectivity index) A431 [6] | IC50 (BChE) [µM] | also measured
1 | CCS(=O)(=O)N1C/C(=C\c2ccc(F)cc2)C(=O)C2(C1)C(c1ccc(F)cc1)CN(C)C21C(=O)Nc2ccc(Cl)cc21 (centres unmarked) [Compound 6h, (E)-5-Chloro-1″-(ethylsulfonyl)-5″-(4-fluorobenzylidene)-4′-(4-fluorophenyl)-1′-methyldispiro[indoline-3,2′-pyrrolidine-3′,3″-piperidine]-2,4″-dione] | 0.8 | 6.3 ± 0.97 | 67.2 | 1.13 | 66.2 | 1.104 | 14 ± 0.73 | > 3.6 | 4.69 ± 0.44 | > 10.7 | 7.69 | 7.69 | 34.1 | 262 | 4.6 ± 0.18 | > 10.9 | 6.04 ± 0.26 | 6.04 | > 8.3 | 8.07 ± 1.47 | IC50 [7]: > 50 µM
2 | COc1ccc(/C=C2\CN(S(C)(=O)=O)CC3(C2=O)C(c2ccc(OC)c(OC)c2)CN(C)C32C(=O)Nc3ccccc32)cc1OC (centres unmarked) [Compound 6n, (E)-5″-(3,4-Dimethoxybenzylidene)-4′-(3,4-dimethoxyphenyl)-1′-methyl-1″-(methylsulfonyl)dispiro[indoline-3,2′-pyrrolidine-3′,3″-piperidine]-2,4″-dione] | 0.9 | 5.4 ± 0.94 | 69.6 | 1.047 | 64.2 | 1.167 | 32.8 ± 1.21 | > 1.5 | 40.2 ± 1.1 | > 1.2 | 35.9 | 35.9 | 17.3 | 621 | 15.4 ± 0.52 | > 3.2 | 34.9 ± 1.36 | 34.9 | > 1.4 | 6.33 ± 0.85 | IC50 [7]: > 50 µM
3 | CCS(=O)(=O)N1C/C(=C\c2ccc(Cl)cc2)C(=O)C2(C1)C(c1ccc(Cl)cc1)CN(C)C21C(=O)Nc2ccccc21 (centres unmarked) [Compound 6k, (E)-5″-(4-Chlorobenzylidene)-4′-(4-chlorophenyl)-1″-(ethylsulfonyl)-1′-methyldispiro[indoline-3,2′-pyrrolidine-3′,3″-piperidine]-2,4″-dione] | 1.6 | 32.3 ± 4.78 | 66.2 | 1.163 | 66.2 | 1.105 | 8.83 ± 0.7 | 1.7 | 4.38 ± 0.26 | 3.4 | 8.43 | 8.43 | 6.6 | 55.5 | 4.17 ± 0.38 | 3.5 | 2.97 ± 0.29 | 2.97 | 5.0 | 19.6 ± 2.1 | IC50 [7]: 14.8 ± 0.99 µM
4 | CN1CC(c2ccccc2)C2(CN(S(C)(=O)=O)C/C(=C\c3ccccc3)C2=O)C12C(=O)Nc1ccc(Cl)cc12 (centres unmarked) [Compound 6b, (E)-5″-Benzylidene-5-chloro-1′-methyl-1″-(methylsulfonyl)-4′-phenyldispiro[indoline-3,2′-pyrrolidine-3′,3″-piperidine]-2,4″-dione] | 0.9 | 27.7 ± 5.45 | 54.1 | 1.5804 | 64.2 | 1.167 | 20.6 ± 1.17 | 1.2 | 7.66 ± 0.68 | 3.2 | 9.63 | 9.63 | 132.0 | 1270 | 6.92 ± 0.52 | 3.6 | 9.15 ± 0.7 | 9.15 | 2.7 | 29.2 ± 3.62 | IC50 [7]: 24.7 ± 1.26 µM
5 | CN1CC(c2ccc(F)cc2)C2(CN(S(C)(=O)=O)C/C(=C\c3ccc(F)cc3)C2=O)C12C(=O)Nc1ccc(Cl)cc12 (centres unmarked) [Compound 6f, (E)-5-Chloro-5″-(4-fluorobenzylidene)-4′-(4-fluorophenyl)-1′-methyl-1″-(methylsulfonyl)dispiro[indoline-3,2′-pyrrolidine-3′,3″-piperidine]-2,4″-dione] | 1.0 | 3.89 ± 1.66 | 69.3 | 1.058 | 64.7 | 1.153 | 11.7 ± 0.94 | 1.5 | 5 ± 0.39 | 3.6 | 7.67 | 7.67 | 8.8 | 67.8 | 5.43 ± 0.46 | 3.3 | 4.76 ± 0.37 | 4.76 | 3.7 | 3.75 ± 0.71 | times the potency of chloroquine against SARS-CoV-2 ([3]; ratio of IC50 values): about 3.3 times; times the potency of hydroxychloroquine against SARS-CoV-2 ([3]; ratio of IC50 values): ~4.8 times; IC50 [7]: 17.8 ± 0.87 µM
